# Experimental data reported in patent US20170151200A1, “PROPHYLACTIC OR THERAPEUTIC AGENT FOR IDIOPATHIC INFLAMMATORY MYOPATHIES” (EA Pharma Co., Ltd., priority 2012, published 2017).
# Assays:
# [1] = test system: C-protein-induced mouse myositis model (CIM mouse); assay: Inflammation score of muscular tissue in C-protein-induced mouse myositis model (CIM); assay type: in vivo; settings: 0.75 g/kg BCAA or 20 mg/kg PSL oral consecutively from 3 days after immunization, 21 days after immunization, vs Vehicle group, FIG. 1
# Procedure: Using C-protein-induced mouse myositis model (C-protein-induced Myositis: CIM), the effect of BCAA on the inflammation of muscular tissues was examined. For antigen immunization of C57BL/6 mouse (female, 8-week-old), an adjuvant containing 200 μg C-protein and 100 μg killed tuberculosis bacterium (Mycobacterium butyricum), and Complete Freund's adjuvant (CFA) as a component was intradermally injected to the hindpaw sole and tail base, C-protein-free CFA injected to the base of forelimb, and 0.25 μg pertussis toxin was intraperitoneally injected. As an adjuvant control without immunization with an antigen, CFA was intradermally injected to the same sites. From three days after immunization, 0.75 g/kg BCAA (mixture of isoleucine, leucine and valine at a weight ratio of isoleucine:leucine:valine=1:2:1.2) or 20 mg/kg Prednisolone (PSL) was orally administered consecutively, and they were used as the BCAA administration group and the PSL administration group, respectively. In addition, 0.5% methylcellulose and 5% gamma cyclodextrin were orally administered instead of BCAA and the like to give the Vehicle administration group. After 21 days from immunization, the muscle was collected, and the levels of inflammation of quadriceps and flexor muscles were evaluated by the inflammation score. […]
# [2] = test system: C-protein-induced mouse myositis model (CIM mouse); assay: Muscle weight (quadriceps, hamstring/flexor muscles, triceps) in CIM mouse; assay type: in vivo; settings: 21 days after immunization
# Procedure: (§1) Using C-protein-induced mouse myositis model (C-protein-induced Myositis: CIM), the effect of BCAA on the inflammation of muscular tissues was examined. For antigen immunization of C57BL/6 mouse (female, 8-week-old), an adjuvant containing 200 μg C-protein and 100 μg killed tuberculosis bacterium (Mycobacterium butyricum), and Complete Freund's adjuvant (CFA) as a component was intradermally injected to the hindpaw sole and tail base, C-protein-free CFA injected to the base of forelimb, and 0.25 μg pertussis toxin was intraperitoneally injected. As an adjuvant control without immunization with an antigen, CFA was intradermally injected to the same sites. […] After 21 days from immunization, the muscle was collected, and the levels of inflammation of quadriceps and flexor muscles were evaluated by the inflammation score.
# Quadriceps, flexor muscles and triceps were collected from the CIM mouse and control mouse (Ctrl) after 21 days from immunization, and the muscle weight was measured. […]
# Quadriceps, hamstrings, and triceps were collected from the CIM mouse and control mouse (Ctrl) of Example 5 after 21 days from the immunization, and the muscle weight was measured.
# [3] = test system: C-protein-induced mouse myositis model (CIM mouse); assay: Forelimb muscle strength by grip dynamometer in CIM mouse; assay type: in vivo; settings: 20 days after immunization
# Procedure: as §1
# After 20 days from immunization, the muscle strength of the forelimb of each mouse was measured by a veterinary grip dynamometer MK-380CM/R (Muromachi Kikai Co., Ltd.). The measurement was performed 6 times for each animal, and the average thereof was determined. […]
# The muscle strength of the forelimb of each mouse was measured after 20 days from the immunization in Example 5 using veterinary grip dynamometer MK-380CM/R (Muromachi Kikai Co., Ltd.). The measurement was performed 6 times for each animal, and the average thereof was determined.
# [4] = test system: C-protein-induced mouse myositis model (CIM mouse); assay: Sectional area of fast muscle fiber (MHC IIB-positive) of triceps in CIM mouse; assay type: in vivo; settings: triceps 21 days after immunization, 0.75 g/kg BCAA or 20 mg/kg PSL oral, histogram shift toward the left side = atrophy, FIG. 4
# Procedure: as §1
# Since steroid myopathy is predominantly developed in the fast muscle fiber (MHC IIB-positive fiber), atrophy of the muscle fiber of the CIM mouse was evaluated by measuring the sectional area of the muscle fiber. The boundary area of the fast muscle fiber and the muscle fiber of the section of the triceps collected 21 days after the immunization was labeled by immune fluorescent staining using anti-MHC IIB antibody and anti-Laminin antibody (Sigma), and the sectional area of the MHC IIB-positive muscle fiber was measured using Image J software (NIH). […]
# [5] = test system: patients with polymyositis, dermatomyositis and inclusion body myositis; settings: cited from earlier work
molecule,measurement,setting,value
"C[C@]12C=CC(=O)C=C1CC[C@@H]1[C@@H]2[C@@H](O)C[C@@]2(C)[C@H]1CC[C@]2(O)C(=O)CO [PSL, Prednisolone]",inflammation score,[1],significantly suppressed
same,muscle weight,"[2]; CIM mouse of Example 5, 0.25, 0.75 or 2.25 g/kg BCAA + 20 mg/kg PSL, or 20 mg/kg PSL alone, oral, FIG. 6",did not increase
same,muscle weight,"[2]; CIM mouse, 0.75 g/kg BCAA or 20 mg/kg PSL oral, quadriceps, flexor muscles, triceps, FIG. 2",did not show improvement
same,strength of the forelimb muscle,"[3]; CIM mouse of Example 5, 0.25, 0.75 or 2.25 g/kg BCAA + 20 mg/kg PSL, or 20 mg/kg PSL alone, oral, FIG. 7",did not increase
same,muscle strength of the forelimb,"[3]; CIM mouse, 0.75 g/kg BCAA or 20 mg/kg PSL oral, FIG. 3",improvement effect was weak
same,distribution of fast muscle fiber sectional area (muscle fiber atrophy),[4],tendency was stronger
Anakinra: IL-1 receptor antagonist,anti-inflammatory effect,"[5]; polymyositis and dermatomyositis, Ann Rheum Dis. 2011;70:A80-A81",has not been observed
Infliximab: anti-TNF antibody effective for rheumatoid arthritis,effect on inflammation in patients,"[5]; patients with polymyositis, dermatomyositis and inclusion body myositis, Ann Rheum Dis. 2008;67(12):1670-7",aggravation of inflammation and activation of type I interferons
